BindingDB's records for patent US20240308995 (Biogen Ma, 2024)
pIC50: −log10 of the molar value.

Biological target: T1, Protein O-GlcNAcase (Homo sapiens, UniProt O60502)
T1 sequence (O60502 whole entry): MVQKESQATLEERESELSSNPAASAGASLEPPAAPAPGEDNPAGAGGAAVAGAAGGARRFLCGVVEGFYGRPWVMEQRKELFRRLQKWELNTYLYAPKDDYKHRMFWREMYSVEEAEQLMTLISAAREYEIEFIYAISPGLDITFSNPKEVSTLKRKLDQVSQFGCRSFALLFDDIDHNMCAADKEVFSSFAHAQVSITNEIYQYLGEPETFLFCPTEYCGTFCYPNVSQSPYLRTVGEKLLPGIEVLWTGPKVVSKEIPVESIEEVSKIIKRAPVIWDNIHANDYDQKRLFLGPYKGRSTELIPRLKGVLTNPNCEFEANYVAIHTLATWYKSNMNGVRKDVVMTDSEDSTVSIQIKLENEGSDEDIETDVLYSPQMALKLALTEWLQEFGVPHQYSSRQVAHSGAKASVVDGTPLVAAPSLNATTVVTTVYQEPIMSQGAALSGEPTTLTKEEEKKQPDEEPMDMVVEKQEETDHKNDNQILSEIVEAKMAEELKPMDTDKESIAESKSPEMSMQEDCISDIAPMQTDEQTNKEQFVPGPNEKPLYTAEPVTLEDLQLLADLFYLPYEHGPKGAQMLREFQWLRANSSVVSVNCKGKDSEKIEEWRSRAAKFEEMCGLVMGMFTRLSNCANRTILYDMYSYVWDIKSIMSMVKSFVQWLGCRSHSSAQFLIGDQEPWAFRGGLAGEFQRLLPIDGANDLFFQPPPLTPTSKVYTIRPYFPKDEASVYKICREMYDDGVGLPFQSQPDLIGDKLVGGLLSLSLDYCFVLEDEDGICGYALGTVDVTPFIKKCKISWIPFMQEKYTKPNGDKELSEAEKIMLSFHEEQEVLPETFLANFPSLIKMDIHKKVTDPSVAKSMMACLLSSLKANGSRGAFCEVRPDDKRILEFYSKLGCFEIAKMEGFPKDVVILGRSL
Experiment: Enzyme Inhibition Biochemical Assay
Protocol: Recombinant full length human OGA enzyme was purchased from Origene. 4-MUGlcNAc substrate was purchased from Sigma. All other reagents were purchased from Sigma or Fisher. Assay buffer consists of the McIlvaine buffer system, pH 6.4 (0.2M Na2HPO4 mixed with 0.1M citric acid) and 0.01% BSA. […] Reactions were incubated for 90 minutes at room temperature and quenched with 40 μl of 3M glycine, pH 10 and read on a Perkin Elmer Envision plate reader (Ex: 355 nm/Em: 460 nm). Compounds were tested with a 10-point dose-response starting from 20 μM with a 4-fold dilution. Data was fit using GraphPad Prism using a 4-parameter fit with variable slope.

Structure (SMILES): CC(=O)Nc1ncc(CN2C[C@H](Oc3cc(=O)n(C)cn3)C[C@@H]2C)s1 [US20240308995, Example 1-70]
- pIC50: > 9.00
